Reference: patent publication US20030148954A1, “Agents and methods for modulating activator protein-1-mediated cellular processes” (Wisconsin Alumni Research Foundation, priority 2001, published 2003)
Entries after “also recorded” stand apart in the source; their conditions may differ.

Legend:
Format in all cases: cell-based, human
AP-1 = AP-1 luciferase reporter, transient transfection of K562 cells
Excerpt: Plasmids—The pBabe-NIC-1 (pNIC-1) expression vector encoding constitutively active Notch-1 (NIC-1) was described previously (36,37,51). This vector was derived from the pBabe-puro retroviral vector and includes a cDNA sequence encoding amino acids 1759-2556 of human Notch-1 with a Myc tag fused to its carboxyl terminus. Human NIC-1 deletion mutants were generated by PCR using a full-length human Notch-1 expression vector as the template. The Notch-dependent reporter plasmid containing four CBF1 binding sites and an simian virus 40 promoter fused to luciferase (p4×CBF1luc) was described previously (52). The AP-1 reporter plasmid (p1×AP1luc) containing a collagenase promoter fragment (−73/+67) with a single AP-1 binding site in the luciferase reporter vector pGL2-basic (Promega) was described previously (53). The NF-κB reporter plasmid (p3×κBluc) containing three NF-κB binding sites and a minimal promoter fused to luciferase was a kind gift of Dr. Shigeki Miyamoto (University of Wisconsin Medical School). The pBabe-H-Ras(12V) expression vector encoding constitutively active H-Ras was a kind gift of Dr. Charming Der (University of North Carolina-Chapel Hill). This vector was derived from the pBabe-puro retroviral vector and includes a cDNA encoding H-Ras with a Gly to Val mutation at amino acid 12.
(§1) Transient Transfections—K562 cells (5×10^5) were collected by centrifugation at 240×g for 8 min at 4° C. and resuspended in 4 ml of complete IMEM. Plasmid DNAs (1 μg of reporter and 2 μg of effector) were added to 150 μl of IMEM, incubated with Superfect (4 μl/1 μg DNA; Qiagen) for 10 min at room temperature and then added to cells.
For each transfection, cells were incubated for 26 h after transfection and then treated with TPA (final concentration: 5 nM) or the vehicle (DMSO). After incubating for another 12 or 16 h, cells were harvested and assayed for luciferase activity. Luciferase activity was normalized by the protein content of the lysates, determined by Bradford assay using γ-globulin as a standard.

CMV enhancer = test: pCMVβgal β-galactosidase reporter, transient transfection of K562 cells
Procedure: as §1
For each transfection, cells were incubated for 26 h after transfection and then treated with TPA (final concentration: 5 nM) or the vehicle (DMSO). […] Luciferase activity was normalized by the protein content of the lysates, determined by Bradford assay using γ-globulin as a standard.

IκBα = test: Northern blotting of IκBα transcripts in K562-Babe and K562-NIC-1 cells; conditions: 5 nM TPA 12 h, stably transfected NIC-1
Procedure: (§2) Stable Transfection—K562 cells were stably transfected by electroporation with a Bio-Rad Gene pulser electroporator. Cells (5×10^6) were washed with ice-cold PBS, resuspended in 0.5 ml of ice-cold PBS, mixed with 5 μg linearized plasmid DNA, and subjected to electroporation (960 microfarad; 220 V) in a 0.4 cm-wide electroporation cuvette (BTX). pBabe and pNIC-1 were linearized with NotI. Cells were then added to 20 ml of complete IMEM, grown for 48 h, and diluted in complete IMEM containing 1.5 μg/ml puromycin (pools of K562-Babe and K562-NIC-1 cells). Stably transfected cells were analyzed for erythroid differentiation as soon as the pools were generated by benzidine staining to reduce the probability of phenotypic changes that may result from prolonged growth.
Northern Blotting—Total RNA from K562-Babe and K562-NIC-1 cells was extracted with Triazol (Life Technologies, Inc.). Ten μg of RNA per sample was electrophoresed on a 1% agarose, 6.6% formaldehyde gel and then transferred overnight to a Magnacharge nylon membrane (Osmonics). RNA was cross-linked to the membrane by UV irradiation. Membranes were prehybridized for 30 min at 60° C. in ExpressHyb hybridization solution (Clontech). […] Radioactivity was quantitated by PhosphorImager analysis with ImageQuant software (Molecular Dynamics).

c-Fos = test: Western blot of Fos protein; conditions: K562-NIC-1 versus K562-Babe
Procedure: as §2
To measure the phosphorylation state of components of the MAPK pathway, K562-Babe and K562-NIC-1 cells (1×10^6) were collected after treatment with 5 nM TPA or DMSO for 30 min. Cells were washed once with ice-cold PBS, cell pellets were resuspended in 30 μl ice-cold PBS and were immediately boiled in 70 μl SDS sample buffer for 10 min. Proteins (10 μl) were resolved by SDS-PAGE on a 10% acrylamide gel and transferred to Immobilon P membrane (Millipore). […] Antigen-antibody complexes were detected with ECL Plus™ (Amersham Life Science) according to manufacturer's instructions.

For “NIC-1: constitutively active Notch-1 intracellular domain, amino acids 1759-2556 of human Notch-1 with carboxyl-terminal Myc tag, expressed from pBabe-NIC-1”, the “component of TPA-induced AP-1 reporter activity insensitive to NIC-1” value (AP-1; K562, both AP-1 reporters) was roughly 30%, the “inhibition of H-Ras(12V)-activated AP-1 reporter activity” value (AP-1; K562, cotransfected pBabe-H-Ras(12V)) was “almost completely inhibited; also recorded: completely inhibits” and the “concentration response curve for AP-1 repression relative to CSL-dependent activation” value (AP-1; K562, increasing amounts of NIC-1 expression vector, TPA 5 nM 12 h) was “slightly shifted to the left”. For the same substance, the “repression of TPA-induced AP-1 reporter activity” value (AP-1; K562, p1×AP1luc, TPA 5 nM 12 or 16 h) was “repressed”, the “degree of repression of AP-1 reporter with tandem AP-1 binding sites upstream of a β-globin promoter” value (AP-1; K562, pβ106(AP1)2luc, TPA) was “comparable to that seen with the MMP1 promoter” and the “inhibition of TPA-inducible AP-1 activity” value (AP-1; K562, range of TPA concentrations, 16 h) was 70%. For the same substance, the “increase of TPA induced activity of pCMVβgal” value (CMV enhancer; K562, TPA induced) was roughly 2 fold, the “effect on basal activity of pCMVβgal” value (CMV enhancer; K562, basal) was “no effect” and the “effect on TPA induction of IκBα transcripts” value (IκBα) was “no effect”. The “effect on Fos protein levels” value (c-Fos) was “did not affect”.
